Measured values: patent US20040162339A1, “Heterocyclic biaryl compounds, pharmaceutical and cosmetic compositions containing them and uses thereof” (priority 1996, published 2004)

SMILES	melting point [°C]
CCCCCCC1(c2ccc3c(c2)C(C)(C)CCC3(C)C)COc2cc(C(=O)O)ccc21 (centres unmarked)	137
CC1(C)CCC(C)(C)c2cc(C3(CC(=O)O)COc4cc(C(=O)O)ccc43)ccc21 (centres unmarked)	268
